Experimental findings from US9562035B2, “Benzamide derivative useful as FASN inhibitors for the treatment of cancer” (Janssen Pharmaceutica NV, priority 2013, dated 2017) are described below.

Test [1] deals with A2780 ovarian cells. Briefly: A2780 Ovarian Cell Proliferation Assay in Lipid Reduced Medium, with Palmitate (control). Type of test: cell-based. Particulars: Homo sapiens, A2780; lipid reduced medium, 25 μM palmitate, 96 h, MTT; read-out: Proliferation A2780 with Palmitate pIC50 (converted). On the procedure: (§1) The biological assays described below correspond to comparative assays for ovarian cell proliferation. […] Compounds active in the absence of palmitate would not be expected to be active in the control.
(§2) 2500 cells were seeded in a 96-well clear well plate in 200 μL RPMI1640 with 10% Fetal Calf Serum (Hyclone), and incubated at 37° C., 5% CO2. Blanks were wells without cells. The next day the culture medium was aspirated and replaced by 160 μL culture medium with 10% Lipid-Reduced Serum (LRS, Hyclone). 20 μL test compound (at concentrations of 30 μM, 10 μM, 3 μM, 1 μM, 0.30 μM, 0.10 μM, 0.03 μM and 0.01 μM)/DMSO dilution followed by 20 μL palmitate-BSA solution were added to a final concentrations of 0.2% DMSO, 25 μM palmitate (Sigma, P0500, 10 mM stock solution in ethanol) 0.2% fatty-acid-free BSA, 0.25% ethanol. After 96 h incubation, an MTT assay was performed. The absorbance was measured at 544 nm on a SPECTRAMAX.
A best fit curve was fitted by a minimum sum of squares method, plotting Controlmin versus test compound concentration. From the plot, an IC50 (concentration at which 50% inhibition is achieved) was calculated. pIC50 values, presented in the Table below, were calculated as −log(IC50).
(§3) Representative compounds of the present invention were tested according to the procedure as described in Biological Example 3 above, with results as listed in Table BIO-3, below.

Test [2] addresses T1, FASN Keto-reductase Domain (Homo sapiens, UniProt P49327).
T1 construct: 10 μL hFASN enzyme (full length, 300 ng, purified in house) and 360 μM NADPH; made in house
Briefly: Fatty Acid Synthase Keto-Reductase Domain (FASN KR) Inhibition. Type of test: biochemical. The conditions noted are these: mean where tested more than once; read-out: FASN K-R Domain pIC50 (converted). The essentials: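 Full-length human FASN (300 ng) in 100 mM KH2PO4 pH 7.5 with 360 μM NADPH and 180 mM ethyl acetoacetate (stock); A340 decrease read over 20 min at room temperature.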

The test system of test [3] is A2780 ovarian cells. The test can be described thus: A2780 Ovarian Cell Proliferation Assay in Lipid Reduced Medium, without Palmitate. The conditions noted are these: Homo sapiens, A2780; lipid reduced medium, without palmitate, 96 h, MTT; read-out: Proliferation A2780 w/o Palmitate pIC50 (converted). It is filed as cell-based. The method, then: as §1
as §2, with “ethanol-BSA” for “palmitate-BSA”, “DMSO,” for “DMSO, 25 μM palmitate (Sigma, P0500, 10 mM stock solution in ethanol)”, “incubation” for “incubation,”
Raw data generated by the instrument were normalized to % Controlmin values, which were calculated as: % Controlmin=100*(x−mLC)/(mHC−mLC)
where mLC and mHC were the means of the low control wells and high control wells on the plate, after manual exclusion of outliers. A plot of Controlmin versus test compound concentration was fitted to a 4-parameter logistic curve using a non-linear least squares regression method. From the plot, an IC50 (concentration at which 50% inhibition is achieved) was calculated. pIC50 values were calculated as −log(IC50), when IC50 is expressed in molar units.
as §3

Test [4] has as its target T2, hFASN enzyme (full length) (Homo sapiens, UniProt P49327).
T2 construct: 10 μL hFASN enzyme (full length, 300 ng, purified in house); made in house
The test can be described thus: Fatty Acid Synthase (FASN) Inhibition Scintillation Proximity Assay. Type of test: biochemical. Particulars: for IC50: mean where tested more than once, ~ = standard error of pIC50 larger than 0.5; for inhibition at 10 µM: read-out: FASN % Effect @1E−05M. A digest of the protocol:
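Purified full-length human FASN (300 ng) incubated 60 min at room temperature with NADPH, [3H]-acetyl-CoA and malonyl-CoA in 100 mM KH2PO4 pH 7.5, 1 mM DTT; compound at 30 μM to 0.01 μM. [3H]-palmitate captured by SPA imaging beads; IC50 from 4-parameter fit, reported as pIC50.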
(In general: In a scintillation proximity assay essentially only radioactivity close to the scintillant gives light.)

T2 sequence (P49327 whole entry): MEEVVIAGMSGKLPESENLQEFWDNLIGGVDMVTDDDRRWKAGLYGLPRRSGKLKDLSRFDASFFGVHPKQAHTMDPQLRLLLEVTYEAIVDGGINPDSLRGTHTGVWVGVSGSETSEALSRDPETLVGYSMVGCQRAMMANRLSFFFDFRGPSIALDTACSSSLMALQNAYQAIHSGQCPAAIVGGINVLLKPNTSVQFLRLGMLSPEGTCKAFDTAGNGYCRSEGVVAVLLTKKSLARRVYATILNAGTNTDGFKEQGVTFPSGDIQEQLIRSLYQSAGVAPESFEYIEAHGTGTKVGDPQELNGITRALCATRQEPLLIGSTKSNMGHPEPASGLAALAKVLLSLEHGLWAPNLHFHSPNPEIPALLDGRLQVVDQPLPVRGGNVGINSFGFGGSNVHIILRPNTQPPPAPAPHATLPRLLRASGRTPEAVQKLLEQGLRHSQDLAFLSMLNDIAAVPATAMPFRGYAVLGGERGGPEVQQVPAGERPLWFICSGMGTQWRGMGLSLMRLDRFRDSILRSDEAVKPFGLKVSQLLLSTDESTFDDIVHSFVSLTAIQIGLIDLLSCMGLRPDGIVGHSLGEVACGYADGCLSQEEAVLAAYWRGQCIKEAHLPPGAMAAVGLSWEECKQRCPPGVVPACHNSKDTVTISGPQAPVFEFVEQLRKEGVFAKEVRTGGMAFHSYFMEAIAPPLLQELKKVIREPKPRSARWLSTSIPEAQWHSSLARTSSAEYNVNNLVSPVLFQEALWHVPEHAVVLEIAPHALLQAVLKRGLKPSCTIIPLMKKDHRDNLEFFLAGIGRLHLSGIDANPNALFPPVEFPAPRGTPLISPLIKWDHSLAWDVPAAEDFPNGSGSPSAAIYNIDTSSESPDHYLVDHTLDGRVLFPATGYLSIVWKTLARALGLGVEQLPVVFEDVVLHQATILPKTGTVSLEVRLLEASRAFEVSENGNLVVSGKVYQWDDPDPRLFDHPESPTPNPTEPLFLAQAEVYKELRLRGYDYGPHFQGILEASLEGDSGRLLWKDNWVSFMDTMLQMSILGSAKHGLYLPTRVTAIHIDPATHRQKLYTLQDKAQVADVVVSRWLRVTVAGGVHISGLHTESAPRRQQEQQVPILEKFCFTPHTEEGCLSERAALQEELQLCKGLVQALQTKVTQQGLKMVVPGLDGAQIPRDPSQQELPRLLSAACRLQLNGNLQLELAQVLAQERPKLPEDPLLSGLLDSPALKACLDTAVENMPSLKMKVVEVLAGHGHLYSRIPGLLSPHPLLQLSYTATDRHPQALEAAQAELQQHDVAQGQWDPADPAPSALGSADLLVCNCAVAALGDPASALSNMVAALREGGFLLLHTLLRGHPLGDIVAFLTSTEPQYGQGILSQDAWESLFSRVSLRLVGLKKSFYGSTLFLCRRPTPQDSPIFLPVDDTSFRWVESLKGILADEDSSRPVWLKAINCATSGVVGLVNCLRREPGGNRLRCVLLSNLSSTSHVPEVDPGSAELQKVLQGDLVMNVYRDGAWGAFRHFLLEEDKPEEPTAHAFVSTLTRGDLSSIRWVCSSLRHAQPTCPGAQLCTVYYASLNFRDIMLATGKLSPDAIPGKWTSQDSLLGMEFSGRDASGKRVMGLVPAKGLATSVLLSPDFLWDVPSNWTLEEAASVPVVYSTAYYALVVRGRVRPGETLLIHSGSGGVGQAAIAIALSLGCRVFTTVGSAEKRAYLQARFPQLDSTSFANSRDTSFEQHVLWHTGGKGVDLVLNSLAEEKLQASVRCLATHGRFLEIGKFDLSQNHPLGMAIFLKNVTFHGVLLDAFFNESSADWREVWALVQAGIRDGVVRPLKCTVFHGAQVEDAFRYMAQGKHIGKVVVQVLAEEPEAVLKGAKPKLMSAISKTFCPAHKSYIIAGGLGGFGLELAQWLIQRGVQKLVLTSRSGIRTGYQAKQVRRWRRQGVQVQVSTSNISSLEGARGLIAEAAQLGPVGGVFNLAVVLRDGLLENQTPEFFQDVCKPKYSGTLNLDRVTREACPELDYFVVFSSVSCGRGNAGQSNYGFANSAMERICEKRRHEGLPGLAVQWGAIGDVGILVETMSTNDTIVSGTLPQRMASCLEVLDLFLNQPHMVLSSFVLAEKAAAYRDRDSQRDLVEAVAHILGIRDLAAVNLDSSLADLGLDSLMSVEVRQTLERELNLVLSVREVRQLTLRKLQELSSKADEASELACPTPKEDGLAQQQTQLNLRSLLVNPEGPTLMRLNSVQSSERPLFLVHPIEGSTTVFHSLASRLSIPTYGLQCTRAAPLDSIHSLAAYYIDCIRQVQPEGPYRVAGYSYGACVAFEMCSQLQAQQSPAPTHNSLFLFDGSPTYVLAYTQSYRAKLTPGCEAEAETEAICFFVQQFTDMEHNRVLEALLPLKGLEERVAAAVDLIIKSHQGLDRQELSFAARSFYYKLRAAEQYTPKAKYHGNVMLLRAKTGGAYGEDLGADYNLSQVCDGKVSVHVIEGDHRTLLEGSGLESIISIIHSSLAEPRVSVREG
T1 sequence (P49327 whole entry, the tested form may be a part): as the sequence (P49327 whole entry) above

Take `Cc1ccc(C(=O)N2CCC(c3ccc(-c4cnn(C)c4)cc3)CC2)cc1NC(=O)c1cnc(NC(C)C)nc1` [Compound 146, 2-(isopropylamino)-N-(2-methyl-5-(4-(4-(1-methyl-1H-pyrazol-4-yl)phenyl)piperidine-1-carbonyl)phenyl)pyrimidine-5-carboxamide]: the IC50 in the test with A2780 ovarian cells [1] was above 10000 nM; in test [2], 32.4 nM; in the test with A2780 ovarian cells [3] it was around 20.4 nM; in test [4], 19.1 nM. Further, in test [4], the inhibition at 10 µM is 110%.

Turning to `Cc1ccc(C(=O)N2CCC(c3ccc(-c4cnn(C)c4)cc3)CC2)cc1NC(=O)c1c(Cl)cccc1Cl` [Compound 121, 2,6-dichloro-N-(2-methyl-5-(4-(4-(1-methyl-1H-pyrazol-4-yl)phenyl)piperidine-1-carbonyl)phenyl)benzamide], the IC50 in the test on A2780 ovarian cells [1] is 8510 nM; in test [2], 794 nM; in the test with A2780 ovarian cells [3], 1000 nM; in test [4], 380 nM. Further, the inhibition at 10 µM in test [4] is 87%.

Turning to `CCCCCN1CCC(C(=O)Nc2cc(C(=O)N3CCC(c4ccc(-c5cnn(C)c5)cc4)CC3)ccc2C)CC1` [Compound 176, N-(2-methyl-5-(4-(4-(1-methyl-1H-pyrazol-4-yl)phenyl)piperidine-1-carbonyl)phenyl)-1-pentylpiperidine-4-carboxamide], the IC50 was around 10000 nM in the test on A2780 ovarian cells [1], 105 nM in test [2], 53.7 nM in the test on A2780 ovarian cells [3] and 33.9 nM in test [4]. Also, the inhibition at 10 µM in test [4] was 110%.

For `Cc1ccc(C(=O)N2CC(c3ccc(-c4cnn(C)c4)cc3)C2)cc1NC(=O)c1cccc(C(F)(F)F)n1` [Compound 97, N-(2-methyl-5-(3-(4-(1-methyl-1H-pyrazol-4-yl)phenyl)azetidine-1-carbonyl)phenyl)-6-(trifluoromethyl)picolinamide], the IC50 in the test on A2780 ovarian cells [1] is 6030 nM; in test [2], 324 nM; in the test on A2780 ovarian cells [3] it was 501 nM; in test [4] it was 170 nM. In addition, the inhibition at 10 µM in test [4] stood at 89%.

In the case of `CC(C)Nc1ccc(C(=O)Nc2cc(C(=O)N3CCC(c4ccc(-c5cccnc5)cc4)CC3)ccc2Cl)cn1` [Compound 71, N-(2-chloro-5-(4-(4-(pyridin-3-yl)phenyl)piperidine-1-carbonyl)phenyl)-6-(isopropylamino)nicotinamide], the IC50 with A2780 ovarian cells [1] is 5250 nM; in test [2], 234 nM; with A2780 ovarian cells [3], 447 nM; in test [4] it was 47.9 nM. Besides, the inhibition at 10 µM in test [4] turned out to be 101%.

For the compound `Cc1ccc(C(=O)N2CCC(c3ccc(-c4cnn(C)c4)cc3)CC2)cc1NC(=O)c1ccc(N2CCN[C@@H](CO)C2)nc1` [Compound 163, (3R)-6-(3-(hydroxymethyl)piperazin-1-yl)-N-(2-methyl-5-(4-(4-(1-methyl-1H-Pyrazol-4-yl)phenyl)piperidine-1-carbonyl)phenyl)nicotinamide], the IC50 with A2780 ovarian cells [1] is above 10000 nM; in test [2] it was 46.8 nM; in the test on A2780 ovarian cells [3] it was 13.2 nM; in test [4], 28.8 nM. The inhibition at 10 µM in test [4] came to 105%.

For `Cc1ccc(C(=O)N2CCC(c3ccc(-c4cnn(C)c4)cc3)CC2)cc1NC(=O)c1ccc2c(c1)OCO2` [Compound 133, N-(2-methyl-5-(4-(4-(1-methyl-1H-pyrazol-4-yl)phenyl)piperidine-1-carbonyl)phenyl)benzo[d][1,3]dioxole-5-carboxamide], the IC50 is above 10000 nM in the test on A2780 ovarian cells [1], 74.1 nM in test [2], 91.2 nM with A2780 ovarian cells [3] and 37.2 nM in test [4]. Further, the inhibition at 10 µM in test [4] was determined as 96%.

`CC(C)Nc1ccc(C(=O)Nc2cc(C(=O)N3CC(c4ccc(-c5ccncc5)cc4)C3)ccc2Cl)cn1` [Compound #74, N-(2-chloro-5-(3-(4-(pyridin-4-yl)phenyl)azetidine-1-carbonyl)phenyl)-6-(isopropylamino)nicotinamide]: the IC50 in the test with A2780 ovarian cells [1] is 2190 nM; in test [2], 45.7 nM; in the test on A2780 ovarian cells [3], 61.7 nM; in test [4] it was 17.4 nM. In addition, in test [4], the inhibition at 10 µM was found to be 107%.

Regarding `Cc1ccc(C(=O)N2CCC(c3ccc(-c4cnn(C)c4)cc3)CC2)cc1NC(=O)c1ccc(F)c(F)c1F` [Compound 120, 2,3,4-trifluoro-N-(2-methyl-5-(4-(4-(1-methyl-1H-pyrazol-4-yl)phenyl)piperidine-1-carbonyl)phenyl)benzamide], the IC50 with A2780 ovarian cells [1] was around 10000 nM; in test [2] it was 97.7 nM; in the test with A2780 ovarian cells [3], 145 nM; in test [4], 44.7 nM. In test [4], the inhibition at 10 µM worked out at 95%.

For `CSc1ccc(C(=O)Nc2cc(C(=O)N3CCC(c4ccc(-c5cnn(C)c5)cc4)CC3)ccc2C)cc1` [Compound 126, N-(2-methyl-5-(4-(4-(1-methyl-1H-pyrazol-4-yl)phenyl)piperidine-1-carbonyl)phenyl)-4-(methylthio)benzamide], the IC50 in the test on A2780 ovarian cells [1] was above 10000 nM; in test [2], 32.4 nM; in the test on A2780 ovarian cells [3] it was 26.3 nM; in test [4], 30.2 nM. For the same compound, the inhibition at 10 µM in test [4] was 110%.

Turning to `Cc1ccc(C(=O)N2CCC(c3ccc(-c4cnn(-c5cccnc5)c4)cc3)CC2)cc1NC(=O)c1ccc(NC(C)C)nc1` [Compound 261, 6-(isopropylamino)-N-(2-methyl-5-(4-(4-(1-(pyridin-3-yl)-1H-pyrazol-4-yl)phenyl)piperidine-1-carbonyl)phenyl)nicotinamide], the IC50 in the test with A2780 ovarian cells [1] is 3310 nM; in test [2], 126 nM; in the test on A2780 ovarian cells [3], 112 nM; in test [4], 60.3 nM. Further, the inhibition at 10 µM in test [4] is 107%.

Turning to `Cc1ccc(C(=O)N2CCC(c3ccc(-n4ccnc4)cc3)CC2)cc1NC(=O)c1ccc(NC(C)C)nc1` [Compound #15, N-(5-(4-(4-(1H-imidazol-1-yl)phenyl)piperidine-1-carbonyl)-2-methylphenyl)-6-(isopropylamino)nicotinamide], the IC50 with A2780 ovarian cells [1] is above 15100 nM; in test [2] it was 37.2 nM; in the test with A2780 ovarian cells [3] it was around 47.9 nM; in test [4], 22.9 nM. Also, the inhibition at 10 µM in test [4] came to 109%.

For `CCCCC(C)N1CC(C(=O)Nc2cc(C(=O)N3CCC(c4ccc(-c5cnn(C)c5)cc4)CC3)ccc2C)C1` (stereo not shown) [Compound 196, 1-(hexan-2-yl)-N-(2-methyl-5-(4-(4-(1-methyl-1H-pyrazol-4-yl)phenyl)piperidine-1-carbonyl)phenyl)azetidine-3-carboxamide], the IC50 was around 6170 nM in the test with A2780 ovarian cells [1], 282 nM in test [2], 407 nM in the test with A2780 ovarian cells [3] and 162 nM in test [4]. Also, in test [4], the inhibition at 10 µM came to 97%.

In the case of `Cc1ccc(C(=O)N2CCC(c3ccc(-c4cnn(C(C)C)c4)cc3)CC2)cc1NC(=O)c1ccc(NC(C)C)nc1` [Compound 247, N-(5-(4-(4-(1-isopropyl-1H-pyrazol-4-yl)phenyl)piperidine-1-carbonyl)-2-methylphenyl)-6-(isopropylamino)nicotinamide], the IC50 is 6170 nM in the test with A2780 ovarian cells [1], 91.2 nM in test [2], 38.9 nM in the test on A2780 ovarian cells [3] and 33.9 nM in test [4]. In addition, in test [4], the inhibition at 10 µM came to 112%.
